Measurements from ChEMBL document CHEMBL4842357, “Discovery of Novel Apigenin-Piperazine Hybrids as Potent and Selective Poly (ADP-Ribose) Polymerase-1 (PARP-1) Inhibitors for the Treatment of Cancer” (J Med Chem, 2021).
Blank lines part the entries; values can stand above or below the compound they belong to.

How the values were obtained:
[1] = biological target: T1, Poly [ADP-ribose] polymerase 1 (Homo sapiens, UniProt P09874); assay: Inhibition of PARP-1 (unknown origin)
Homo sapiens [2] = species on record: Homo sapiens; assay: Selectivity index, ratio of IC50 for inhibition of recombinant human full-length PARP-2 to IC50 for inhibition of recombinant human full-length PARP-1
Homo sapiens [3] = species on record: Homo sapiens; assay: Selectivity index, ratio of IC50 for PARP-2 (unknown origin) to IC50 for PARP-1 (unknown origin)
[4] = biological target: T2, Poly [ADP-ribose] polymerase 2 (Homo sapiens, UniProt Q9UGN5); assay: Inhibition of recombinant human full-length PARP-2 using biotinylated substrate
T2 sequence (Q9UGN5 whole entry): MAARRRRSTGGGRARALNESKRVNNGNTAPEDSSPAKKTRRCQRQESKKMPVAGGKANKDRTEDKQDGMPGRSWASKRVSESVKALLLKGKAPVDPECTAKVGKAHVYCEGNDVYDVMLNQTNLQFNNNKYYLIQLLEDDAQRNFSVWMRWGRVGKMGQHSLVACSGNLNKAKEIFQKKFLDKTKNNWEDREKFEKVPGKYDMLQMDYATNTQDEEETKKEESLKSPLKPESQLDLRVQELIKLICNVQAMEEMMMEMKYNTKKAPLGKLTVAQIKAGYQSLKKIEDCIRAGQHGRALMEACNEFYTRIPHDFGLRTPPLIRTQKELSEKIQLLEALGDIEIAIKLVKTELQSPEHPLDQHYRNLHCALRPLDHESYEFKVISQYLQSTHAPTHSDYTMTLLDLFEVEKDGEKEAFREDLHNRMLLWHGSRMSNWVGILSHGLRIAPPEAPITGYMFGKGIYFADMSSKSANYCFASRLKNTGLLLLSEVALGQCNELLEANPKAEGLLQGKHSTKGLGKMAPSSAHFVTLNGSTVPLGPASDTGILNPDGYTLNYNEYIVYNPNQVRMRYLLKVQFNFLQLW

[5] = biological target: T1, Poly [ADP-ribose] polymerase 1; assay: Inhibition of recombinant human full-length PARP-1 using biotinylated substrate
[6] = biological target: T2, Poly [ADP-ribose] polymerase 2; assay: Inhibition of PARP-2 (unknown origin)
[7] = Toxicity in BALB/c nude mouse xenografted with human A549 cells assessed as change in body weight at 25 to 50 mg/kg, po administered once daily measured for 28 days in presence of CBP; assay type: organism-based; conditions: in vivo, 672 h, dose 25-50 mg/kg, time 28 day
[8] = AUC(0 to infinity) in Sprague-Dawley rat at 5 mg/kg, iv; assay type: ADME, organism-based; parameters: route intravenous, time infinity, dose 5 mg/kg; conditions: in vivo
[9] = Toxicity in BALB/c mouse xenografted with human SK-OV-3 cells assessed as change in body weight at 25 to 50 mg/kg, po administered once daily measured for 28 days; assay type: organism-based; conditions: in vivo, 672 h, dose 25-50 mg/kg, time 28 day
[10] = Cmax in Sprague-Dawley rat at 5 mg/kg, iv; assay type: ADME, organism-based; parameters: route intravenous, dose 5 mg/kg; conditions: in vivo
[11] = Half life in Sprague-Dawley rat at 50 mg/kg, po; assay type: ADME, organism-based; conditions: in vivo
[12] = Half life in Sprague-Dawley rat at 5 mg/kg, iv; assay type: ADME, organism-based; conditions: in vivo
[13] = AUC(0 to infinity) in Sprague-Dawley rat at 50 mg/kg, po; assay type: ADME, organism-based; parameters: time infinity, route oral, dose 50 mg/kg; conditions: in vivo
[14] = MRT in Sprague-Dawley rat at 50 mg/kg, po; assay type: ADME, organism-based; conditions: in vivo
[15] = MRT in Sprague-Dawley rat at 5 mg/kg, iv; assay type: ADME, organism-based; conditions: in vivo
[16] = Tmax in Sprague-Dawley rat at 5 mg/kg, iv; assay type: ADME, organism-based; conditions: in vivo
[17] = Acute toxicity in ICR mouse assessed as mortality at 200 to 1000 mg/kg, po administered for 14 days; assay type: organism-based; conditions: in vivo, 336 h, dose 200-1000 mg/kg, time 14 day
[18] = Subacute toxicity in ICR mouse assessed as clinical abnormalities at 1000 mg/kg, po administered for 14 days; assay type: organism-based; conditions: in vivo, 336 h, time 14 day
SK-OV-3 = assay: Antitumor activity against human SK-OV-3 cells xenografted in BALB/c nude mouse assessed as relative tumor volume at 50 mg/kg, po administered once daily for 12 days; assay type: functional; conditions: time 12 day
[19] = Oral bioavailability in Sprague-Dawley rat at 50 mg/kg; assay type: ADME, organism-based; conditions: in vivo
[20] = Subacute toxicity in ICR mouse assessed as weight abnormalities at 1000 mg/kg, po administered for 14 days; assay type: organism-based; conditions: in vivo, 336 h, time 14 day
[21] = Tmax in Sprague-Dawley rat at 50 mg/kg, po; assay type: ADME, organism-based; conditions: in vivo
[22] = Drug distribution in liver of mouse xenografted with human SK-OV-3 cells at 100 mg/kg, po after 9 hrs by LC-MS analysis; assay type: ADME, organism-based; conditions: in vivo
[23] = Drug distribution in spleen of mouse xenografted with human SK-OV-3 cells at 100 mg/kg, po after 9 hrs by LC-MS analysis; assay type: ADME, organism-based; conditions: in vivo
[24] = Acute toxicity in ICR mouse assessed as abnormalities at 200 to 1000 mg/kg, po administered for 14 days; assay type: organism-based; conditions: in vivo, 336 h, dose 200-1000 mg/kg, time 14 day
[25] = Toxicity in ICR mouse assessed as effect on main visceral organs at 1000 mg/kg, ig administered for 14 days by H and E analysis; assay type: organism-based; conditions: in vivo, po, 336 h, time 14 day
[26] = Volume of distribution at steady state in Sprague-Dawley rat at 5 mg/kg, iv; assay type: ADME, organism-based; conditions: in vivo, read-out: Vdss
[27] = Subacute toxicity in ICR mouse assessed as death at 1000 mg/kg, po administered for 14 days; assay type: organism-based; conditions: in vivo, 336 h, time 14 day
[28] = Drug distribution in tumor of mouse xenografted with human SK-OV-3 cells at 100 mg/kg, po after 1 hr by LC-MS analysis; assay type: ADME, organism-based, Neoplasm; conditions: in vivo
[29] = Total plasma clearance in Sprague-Dawley rat at 5 mg/kg, iv; assay type: ADME, organism-based
[30] = Cmax in Sprague-Dawley rat at 50 mg/kg, po; assay type: ADME, organism-based; parameters: route oral, dose 50 mg/kg; conditions: in vivo

T1 sequence (P09874 whole entry): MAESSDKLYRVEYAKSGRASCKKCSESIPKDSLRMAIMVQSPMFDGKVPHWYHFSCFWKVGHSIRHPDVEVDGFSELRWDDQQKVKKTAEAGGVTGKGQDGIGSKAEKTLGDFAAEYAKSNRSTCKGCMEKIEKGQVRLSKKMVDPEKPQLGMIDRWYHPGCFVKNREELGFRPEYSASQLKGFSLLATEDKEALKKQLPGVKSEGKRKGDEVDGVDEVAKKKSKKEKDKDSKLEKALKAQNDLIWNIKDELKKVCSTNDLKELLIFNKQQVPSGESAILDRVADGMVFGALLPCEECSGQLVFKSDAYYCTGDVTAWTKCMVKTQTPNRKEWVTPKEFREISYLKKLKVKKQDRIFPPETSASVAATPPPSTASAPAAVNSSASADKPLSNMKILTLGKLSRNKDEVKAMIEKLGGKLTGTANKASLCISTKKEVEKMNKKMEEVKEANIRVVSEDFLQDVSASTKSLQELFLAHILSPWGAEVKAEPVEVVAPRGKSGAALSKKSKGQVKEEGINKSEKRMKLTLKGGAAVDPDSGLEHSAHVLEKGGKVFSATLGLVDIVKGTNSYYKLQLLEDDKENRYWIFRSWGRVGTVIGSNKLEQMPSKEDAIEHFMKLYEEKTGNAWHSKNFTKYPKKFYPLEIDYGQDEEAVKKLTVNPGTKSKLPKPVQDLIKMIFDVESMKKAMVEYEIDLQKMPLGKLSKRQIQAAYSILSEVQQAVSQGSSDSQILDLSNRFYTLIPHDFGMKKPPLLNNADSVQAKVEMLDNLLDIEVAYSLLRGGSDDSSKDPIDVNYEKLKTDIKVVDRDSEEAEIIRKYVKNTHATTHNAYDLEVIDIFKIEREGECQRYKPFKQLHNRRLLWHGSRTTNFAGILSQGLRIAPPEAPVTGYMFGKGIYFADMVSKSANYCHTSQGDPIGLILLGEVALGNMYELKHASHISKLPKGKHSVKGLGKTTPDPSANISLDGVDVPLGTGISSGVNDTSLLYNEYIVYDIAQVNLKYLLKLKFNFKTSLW

IC50 [1]: 0.0002 µM | Ratio IC50 (Homo sapiens [2]): 55.2 | Ratio IC50 (Homo sapiens [3]): 52 | IC50 [4]: 10.3 µM | IC50 [5]: 0.187 µM | IC50 [6]: 10.3 µM
Compound: O=c1cc(-c2ccc(O)c(-c3c(O)cc(O)c4c(=O)cc(-c5ccc(O)cc5)oc34)c2)oc2cc(O)cc(O)c12 [AMENTOFLAVONE]

Compound: Cl.Cl.O=c1cc(-c2ccc(O)cc2)oc2c(CN3CCN(Cc4cccs4)CC3)c(O)cc(O)c12
Activity [7]: Non-Toxic | AUC(0-inf) [8]: 1370 ng·h/mL | Activity [9]: Non-Toxic | Cmax [10]: 2880 ng/mL | half-life [11]: 10.7 h | half-life [12]: 3.19 h | AUC(0-inf) [13]: 3630 ng·h/mL | MRT [14]: 13 h | MRT [15]: 3.14 h | Tmax [16]: 1.8 min | Activity [17]: Non-Toxic | Activity [18]: Non-Toxic | Activity (SK-OV-3): 0.74 | bioavailability [19]: 26.5% | Activity [20]: Non-Toxic | Tmax [21]: 1.5 h | Drug uptake [22]: Active | Drug uptake [23]: Not Active | Activity [24]: Non-Toxic | Activity [25]: Non-Toxic | Vd [26]: 11.4 L/kg | Activity [27]: Non-Toxic | Drug uptake [28]: Active | clearance [29]: 60.5 mL/min/kg | Cmax [30]: 470 ng/mL
